We go through 15 molecules from the AptaBench aptamer set (doi:10.1093/nar/gkaf219).

Common to all, as to settings: 10 mM Tris-HCl, pH 7.4
Test [1] deals with DNA aptamer or structured DNA GGGACGACTAGCCCTAGCGTTGTTCGAGTCCATGAGTAGTCGTCCC
Test [2] concerns DNA aptamer or structured DNA GGGACGACGGGGGGAGTAATGTTTGTGTGGGGGAGCCGGTCGTCCC
Test [3] deals with DNA aptamer or structured DNA GGGACGACATGCGTCGAAAAGACCCCTGAGGGCAGCTGGTCGTCCC
Test [4] has as its system DNA aptamer or structured DNA TTCAAATCTGCGGCGACTAATTCTTAGTGGTGGTTGCAATGCGCTGGGATGAGTCTAGATTTGAA
In test [5] the test system is DNA aptamer or structured DNA GGGACGACTGGCGCCGGATTCCCTAAGGTACACGGACTGTCGTCCC
The test system of test [6] is DNA aptamer or structured DNA CTTACGACTTACTTTTGGGTTGTCTGGGTGGGAGGTATGTCGTAAG
In test [7] the test system is DNA aptamer or structured DNA GGGACGACATCGTAGGGGCACACGCTTAACGGGCTGATGTCGTCCC
Test [8] concerns DNA aptamer or structured DNA TTCAAATCTAGCGCAGGTAGGGGTGTAGGCGTGGGGGTAAGTCTAGATTTGAA
The test system of test [9] is DNA aptamer or structured DNA CTTACGACCTAAGGGTCTGGAGTGGTTGTTATACGCTGGTCGTAAG
The test system of test [10] is DNA aptamer or structured DNA GGGACGACGGGGGGCTTTAGGGTGTAGGAGTGGGGTGAGTCGTCCC
For test [11], the system named is DNA aptamer or structured DNA CTTACGACTAGTTCTGAGGAATCAACGTCGGTGTAGTTGTCGTAAG
Test [12] relates to DNA aptamer or structured DNA CTTACGACAGGTTCTGAGGAATCAACGTCGGTGTAGTTGTCGTAAG
The test system of test [13] is DNA aptamer or structured DNA CTTACGACAGTAACGGTGGGTATATGGGATTTATGTTCGTCGTAAG
Test [14] deals with DNA aptamer or structured DNA GGGACGACTAGCCGTGGCGTTGTTCGAGTGCAGCGAGTAGTCGTCCC
Test [15] concerns DNA aptamer or structured DNA GGGACGACGGTTGGCATTGGGTCGGGTGTGGGTGCGGCGTCGTCCC
Test [16] relates to DNA aptamer or structured DNA GGGACGACTAGCCGCGCGTTGTCCGACCCTTGGAAGTAGTCGTCCC
In test [17] the test system is DNA aptamer or structured DNA GGGACGACTAGTGCCTTCGCGTTGTTCAGGAATCCGGTTCTGTCGTCCC
The subject of test [18] is DNA aptamer or structured DNA GGGACGACTAGTGCCTTCGCGCTGTGCGGGAATCCGGTTCTGTCGTCCC
For test [19], the system named is DNA aptamer or structured DNA GGGACGACTAGTGCCTTCGCGTTGTACGGGAATCCGGTTCTGTCGTCCC
Test [20] concerns DNA aptamer or structured DNA GGGACGACCCGTAGGGGTACACGCTCTATGGGGGCTGGGTCGTCCC
Test [21] has as its system DNA aptamer or structured DNA GGGACGACGGGGATTCGCGGATTCATGGAAAAGGGCTCGTCTGTCGTCCC
Test [22] has as its system DNA aptamer or structured DNA GGGACGACGGCACGAGGTTAATCGTTGGTTGCACTGCGCTGGGAGGCAGTCGTCCC
For test [23], the system named is DNA aptamer or structured DNA GGGACGACCGGCTGTCTGGATGCATTGCGCCGGGAACTCGGACGGATGGTCGTCCC
Test [24] relates to DNA aptamer or structured DNA GGGACGACGGCACGAGGTTATTCGTTGGTTGCACTGCGCTGGGAGGAAGTCGTCCC
Test [25] has as its system DNA aptamer or structured DNA GGGACGACCGTCCGAGTTTTAGGAGTGGTTGCATTGCGCTGGGAAGAGGTCGTCCC
Test [26] relates to DNA aptamer or structured DNA GGGACGACGGGAAGGTTGGCAGCGCATCGTCGGGTCACGTCGTCCC
Test [27] deals with DNA aptamer or structured DNA GGGACGACAAGTCAGGCCTGTCTCAGCGAGTTCGACATGTCGTCCC
Test [28] concerns DNA aptamer or structured DNA CTTACGACCATGGGTGTTTGCACTAAGTCCGGTTCTTGGTCGTAAG
Test [29] concerns DNA aptamer or structured DNA GGGACGACGCGTACCATGGGTAGTTGCACGTCGTCCAAGTCGTCCC
For test [30], the system named is DNA aptamer or structured DNA GGGACGACAGGGATTCGCGGATTCGGAGAAAAGGGCTCGTACGTCGTCCC
The subject of test [31] is DNA aptamer or structured DNA GGGACGACAGGGATTCGGTCTTGGTACATAGGGGCCTCGTCTGTCGTCCC
Test [32] relates to DNA aptamer or structured DNA GGGACGACTACAGGTCGTGCGTCGCTCGAGTTGGTGAGTGTGTCGTCCC
Throughout, for binding call: call rule not given here.

For the molecule `Cc1nnc2n1-c1ccc(Cl)cc1C(c1ccccc1)=NC2`, the binding call in test [1], in [2], in test [3], in test [4], in [5] and in test [6] was “no binding” throughout. Also, the binding call in test [7] is reported as “no binding”.
For `CC(C)[C@H](NC(=O)c1nn(Cc2ccc(F)cc2)c2ccccc12)C(N)=O`, the Kd (usually the equilibrium constant for the complex coming apart) came out at 53 nM in test [8] and 138 nM in test [10]. In addition, the binding call in test [9] is reported as “no binding”.
As to `CN1C2CCC1[C@@H](C(=O)O)[C@@H](OC(=O)c1ccccc1)C2` (some centres undefined), the binding call in test [11] was “no binding”; in test [12] it was “binds”; in [6], “no binding”; in test [9] it was “binds”; in [13] it was “no binding”.
On to `CN(C)CCOC(c1ccccc1)c1ccccc1`, for which the binding call in [14] is “no binding”; in test [15] it was “binds”; in [16], “no binding”; in test [17], “no binding”; in [18], “no binding”; in [8], “no binding”. Also, the binding call is reported as “no binding” in test [11]; “no binding” in test [7]; “no binding” in test [19]; “binds” in [10]; “no binding” in test [20]; “no binding” in test [21].
With `CNC(C)Cc1ccc2c(c1)OCO2` (centres undefined), the binding call in [18] is “binds”; in test [4] it was “binds”; in [22], “binds”; in [23], “binds”; in test [12] it was “no binding”; in test [24] it was “binds”. The results for the binding call in test [9], in test [25] and in test [10] were “no binding”, “binds” and “no binding”, respectively.
`CN1C(=O)CN=C(c2ccccc2)c2cc(Cl)ccc21`: the binding call in [14], in test [1], in test [2], in test [26], in test [3] and in [5] was “no binding” throughout. The binding call in [6], in test [9], in test [7], in test [27] and in test [20] was “no binding” throughout.
Consider `COC(=O)C(c1ccccc1)C1CCCCN1` (centres undefined), for which the binding call in test [15] is recorded as “binds”; in [4] it was “no binding”.
As to `CC(=O)Nc1ccc(O)cc1`, the binding call in test [28], in test [14], in test [3], in test [29] and in test [13] was “no binding” in each case.
Turning to `NCC(O)c1ccc(O)c(O)c1` (centres undefined), the binding call was “no binding” in test [17]; “no binding” in test [30]; “binds” in [4]; “binds” in [22]; “no binding” in test [23]; “no binding” in test [31]. For the same molecule, the binding call in [24] is reported as “no binding”; in test [32], “no binding”; in [25] it was “no binding”; in [19], “binds”; in test [21], “no binding”.
Turning to `CN[C@@H](C)[C@@H](O)c1ccccc1`, the binding call in test [15], in test [16], in test [22] and in test [24] was “no binding” in each case.
As for `CCCC(C(=O)c1ccc2c(c1)OCO2)N1CCCC1` (centres undefined), the binding call in test [4], in test [22], in [12], in test [6] and in test [13] was “no binding” each time.
For `CC(N)Cc1ccccc1` (centres undefined), the binding call in [15] is recorded as “no binding”; in test [18] it was “binds”; in test [4] it was “binds”; in [22] it was “binds”; in test [23] it was “no binding”; in test [24], “binds”. Also, the values for the binding call in test [25] and in test [10] were “binds” and “no binding”, respectively.
For the molecule `OC[C@@H](O)[C@@H](O)[C@H](O)[C@H](O)CO`, the binding call in test [1], in [2], in test [3], in test [5] and in test [20] was “no binding” in each case.
Consider `COc1ccc2c3c1O[C@H]1C(=O)CC[C@@]4(O)[C@@H](C2)N(C)CC[C@]314`, for which the binding call in test [15], in test [8], in [11], in test [12], in test [6] and in test [9] was “no binding” in each case. In test [10], the binding call is recorded as “no binding”. Also, the Kd in [2] was determined as 1190 nM; in [5], 3060 nM; in test [7] it was 1420 nM; in test [27], 450 nM; in test [20], 500 nM.
In the case of `CN1CC[C@]23c4c5ccc(O)c4O[C@H]2[C@@H](O)C=C[C@H]3[C@H]1C5`, the binding call in test [28] is on record as “no binding”; in test [18] it was “no binding”; in test [22], “no binding”; in test [24], “no binding”; in test [25] it was “no binding”; in [21], “binds”. In addition, the dissociation constant Kd in test [17] was determined as 13800 nM; in test [31] it was 1100 nM; in test [32], 3500 nM; in test [19], 1300 nM.
